Molecular target: T1, Human Neutrophil Elastase (Homo sapiens, UniProt P08246)
T1 construct: Human Neutrophil Elastase (FINE) purified from serum (Calbiochem art. 324681); purchased Calbiochem 324681; host or cells: natural enzyme, purified from serum
T1 sequence (P08246 30-267): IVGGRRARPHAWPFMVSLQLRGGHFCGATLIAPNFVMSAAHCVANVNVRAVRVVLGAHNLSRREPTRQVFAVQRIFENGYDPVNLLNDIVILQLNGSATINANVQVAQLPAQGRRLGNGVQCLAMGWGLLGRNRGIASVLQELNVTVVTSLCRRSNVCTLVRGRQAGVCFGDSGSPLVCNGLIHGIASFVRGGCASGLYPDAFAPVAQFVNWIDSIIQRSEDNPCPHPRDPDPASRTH
Test: Human Neutrophil Elastase Quenched-FRET Assay
Assay type: biochemical
Details: HNE purified from serum; substrate MeOSuc-AAPV-AMC; 15 min preincubation, 30 min incubation at room temperature; read-out: Inhibition of Human Neutrophil Elastase IC50
Procedure: Human Neutrophil Elastase Quenched-FRET Assay
HNE was stored in 50 mM NaOAc, 200 mM NaCl, pH 5.5 with added 30% glycerol at −20° C. […] The substrate was stored in DMSO at −20° C. […] The assay buffer constitution was: 100 mM Tris (pH 7.5) and 500 mM NaCl. The enzyme and the compounds were incubated at room temperature for 15 minutes. Then 30 μl substrate in assay buffer was added. The assay was stopped after 30 minutes incubation at room temperature by adding 60 μl stop solution (140 mM acetic acid, 200 mM sodium monochloroacetate, 60 mM sodium acetate, pH 4.3).

| Compound | IC50 [nM] |
| --- | --- |
| Cc1c(-c2ccccc2)cc(C(=O)NCc2ccc(S(C)(=O)=O)cc2)c(=O)n1-c1cccc(C(F)(F)F)c1 [Example 1, 6-Methyl-N-[4-(methylsulfonyl)benzyl]-2-oxo-5-phenyl-1-[3-(trifluoromethyl)phenyl]-1,2-dihydropyridine-3-carboxamide] | 47 |
| Cc1c(-c2ccoc2)cc(C(=O)NCc2ccc(S(C)(=O)=O)cc2)c(=O)n1-c1cccc(C(F)(F)F)c1 [Example 2, 5-Furan-3-yl-6-methyl-2-oxo-1-(3-trifluoromethyl-phenyl)-1,2-dihydro-pyridine-3-carboxylic acid 4-methanesulfonyl-benzylamide] | 46 |
| COc1ncc(-c2cc(C(=O)NCc3ccc(S(C)(=O)=O)cc3)c(=O)n(-c3cccc(C(F)(F)F)c3)c2C)cn1 [Example 5, 5-(2-Methoxypyrimidin-5-yl)-6-methyl-N-[4-(methylsulfonyl)benzyl]-2-oxo-1-[3-(trifluoromethyl)phenyl]-1,2-dihydropyridine-3-carboxamide] | 48 |
| Cc1noc(C)c1-c1cc(C(=O)NCc2ccc(S(=O)(=O)C(C)C)cc2)c(=O)n(-c2cccc(C(F)(F)F)c2)c1C [Example 32, 5-(3,5-Dimethylisoxazol-4-yl)-N-[4-(isopropylsulfonyl)benzyl]-6-methyl-2-oxo-1-[3-(trifluoromethyl)phenyl]-1,2-dihydropyridine-3-carboxamide] | 3 |
| Cc1nnc(-c2cc(C(=O)NCc3ccc(S(=O)(=O)C4CC4)cc3)c(=O)n(-c3cccc(C(F)(F)F)c3)c2C)o1 [Example 46, N-[4-(Cyclopropylsulfonyl)benzyl]-6-methyl-5-(5-methyl-1,3,4-oxadiazol-2-yl)-2-oxo-1-[3-(trifluoromethyl)phenyl]-1,2-dihydropyridine-3-carboxamide] | 7 |
| Cc1cc(CNC(=O)c2cc(-c3ccnn3C)c(C)n(-c3cccc(C(F)(F)F)c3)c2=O)on1 [Example 91, 6-Methyl-5-(2-methyl-2H-pyrazol-3-yl)-2-oxo-1-(3-trifluoromethyl-phenyl)-1,2-dihydro-pyridine-3-carboxylic acid (3-methyl-isoxazol-5-ylmethyl)-amide] | 12 |
